SMILES strings stand for the structures. Some results are limits rather than exact numbers.

Common to all, as to type: functional
Test [1] has as its system Human alphaherpesvirus 2. Nature of the test: Effective concentration required to inhibit replication of strain G of HSV-2 by 90%.
Test [2] concerns Human alphaherpesvirus 1. Nature of the test: Effective concentration required to inhibit replication of strain F of HSV-1 by 50%. The conditions noted are these: read-out: ED50 (the source's name).
Test [3] deals with Human alphaherpesvirus 2. Nature of the test: Effective concentration required to inhibit replication of strain G of HSV-2 by 50%. The following applies: read-out: ED50 (the source's name).
The test system of the next test is Vero. Nature of the test: Compound was evaluated for cytotoxicity in rapidly dividing Vero cells. The following applies: Chlorocebus sabaeus, read-out: ID50 (the source's name).
Test [4] relates to Human alphaherpesvirus 1. Nature of the test: Effective concentration required to inhibit replication of strain F of HSV-1 by 90%.

For the compound `CC1O[C@@H](n2cc(I)c(N)nc2=O)[C@H](F)[C@H]1O` (stereo not given in full), the ED90 with Human alphaherpesvirus 2 [1] and in the test with Human alphaherpesvirus 1 [4] was more than 400 µM throughout. Further, the EC50 in the test on Human alphaherpesvirus 1 [2] and with Human alphaherpesvirus 2 [3] was more than 400 µM each time. The IC50 in the test on Vero is more than 400 µM.
As to `Cc1cn([C@@H]2OC(CN)[C@H](O)[C@H]2F)c(=O)[nH]c1=O` (stereo not given in full), the values for the ED90 in the test on Human alphaherpesvirus 2 [1] and in the test with Human alphaherpesvirus 1 [4] were 14 µM and 3 µM, respectively. The EC50 is 0.78 µM in the test on Human alphaherpesvirus 1 [2] and 5.6 µM in the test on Human alphaherpesvirus 2 [3]. The IC50 in the test on Vero turned out to be 6.7 µM.
In the same order, the values of `CC1O[C@@H](n2ccc(=O)[nH]c2=O)[C@H](F)[C@H]1O` (stereo not given in full) are 379 µM, 538 µM, 346 µM, 224 µM and 333 µM.
In the same order, the values of `NCC1O[C@@H](n2cc(I)c(N)nc2=O)[C@H](F)[C@H]1O` (stereo not given in full) are more than 400 µM, 480 µM, 202 µM, more than 400 µM and more than 400 µM.
For `O=c1[nH]c(=O)n([C@@H]2O[C@H](CO)C(O)C2F)cc1I` (single isomer, unassigned) [FIALURIDINE], in that order: 0.045 µM, 0.041 µM, 0.012 µM, 0.01 µM and 10.3 µM.
Take `CC1O[C@@H](n2ccc(N)nc2=O)[C@H](F)[C@H]1O` (stereo not given in full): the ED90 with Human alphaherpesvirus 2 [1] came to 45.5 µM; with Human alphaherpesvirus 1 [4], 35.9 µM. Besides, the EC50 in the test on Human alphaherpesvirus 1 [2] turned out to be 13.3 µM; in the test on Human alphaherpesvirus 2 [3], 17.1 µM. The IC50 in the test with Vero turned out to be 225 µM.
On to `NCC1O[C@@H](n2cc(I)c(=O)[nH]c2=O)[C@H](F)[C@H]1O` (stereo not given in full), for which the ED90 in the test on Human alphaherpesvirus 2 [1] and in the test on Human alphaherpesvirus 1 [4] was more than 200 µM in each case. Moreover, the EC50 is 108 µM in the test on Human alphaherpesvirus 1 [2] and more than 200 µM with Human alphaherpesvirus 2 [3]. In addition, the IC50 with Vero was more than 200 µM.
On to `Cc1cn([C@@H]2OC(C)[C@H](O)[C@H]2F)c(=O)[nH]c1=O` (stereo not given in full), for which the ED90 turned out to be 493 µM with Human alphaherpesvirus 2 [1] and 298 µM in the test with Human alphaherpesvirus 1 [4]. The EC50 amounted to 31.1 µM in the test on Human alphaherpesvirus 1 [2] and 173 µM in the test on Human alphaherpesvirus 2 [3]. Besides, the IC50 in the test with Vero came out at 214 µM.
Turning to `Cc1cn([C@@H]2OC(CS)[C@H](O)[C@H]2F)c(=O)[nH]c1=O` (stereo not given in full), the ED90 in the test on Human alphaherpesvirus 2 [1] and with Human alphaherpesvirus 1 [4] was more than 200 µM in each case. Also, the EC50 in the test on Human alphaherpesvirus 1 [2] and in the test with Human alphaherpesvirus 2 [3] was more than 200 µM in each case. For the same compound, the IC50 in the test on Vero was determined as 314 µM.
Take `Cc1cn([C@@H]2O[C@H](CO)C(O)C2F)c(=O)[nH]c1=O` (single isomer, unassigned) [5-METHYL-2'-FLUOROARAURACIL]: the figures for the ED90 in the test with Human alphaherpesvirus 2 [1] and with Human alphaherpesvirus 1 [4] were 0.09 µM and 0.047 µM, respectively. In addition, the EC50 amounted to 0.018 µM in the test on Human alphaherpesvirus 1 [2] and 0.023 µM in the test on Human alphaherpesvirus 2 [3]. For the same compound, the IC50 in the test with Vero is 2.8 µM.
Take `Nc1nc(=O)n([C@@H]2OC(CS)[C@H](O)[C@H]2F)cc1I` (stereo not given in full): the ED90 in the test on Human alphaherpesvirus 2 [1] was more than 200 µM; in the test on Human alphaherpesvirus 1 [4], 444 µM. In addition, the EC50 was 216 µM in the test on Human alphaherpesvirus 1 [2] and more than 200 µM in the test with Human alphaherpesvirus 2 [3]. Also, in the test with Vero, the IC50 amounted to 337 µM.
For `CC1O[C@@H](n2cc(I)c(=O)[nH]c2=O)[C@H](F)[C@H]1O` (stereo not given in full), in that order: 290 µM, 384 µM, 220 µM, 135 µM and more than 400 µM.
For `Nc1nc(=O)n([C@@H]2O[C@H](CO)C(O)C2F)cc1I` (single isomer, unassigned) [FIACITABINE], in that order: 0.08 µM, 0.048 µM, 0.023 µM, 0.03 µM and 21.7 µM.
